These results are taken from PubChem BioAssay AID1552 (Sanford-Burnham Center for Chemical Genomics, 2009).

Calls of active or inactive are those of the source. No rule for the calls is given here.

In this experiment the target is Ubiquitin-conjugating enzyme E2 N (Homo sapiens) (UniProt P61088). Description: NMR detection of UBE2N ligand binding – biophysical, purified protein (AID 1552). The settings on record: NMR binding to purified UBE2N.
Chain of Ubiquitin-conjugating enzyme E2 N (Homo sapiens) (P61088 whole entry, looked up): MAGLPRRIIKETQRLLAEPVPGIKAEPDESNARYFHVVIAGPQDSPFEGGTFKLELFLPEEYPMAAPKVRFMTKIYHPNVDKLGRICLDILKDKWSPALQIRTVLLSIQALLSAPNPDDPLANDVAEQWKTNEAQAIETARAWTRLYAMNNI
As for `COc1ccc(-c2cc(=O)c3c(O)cc(O)c(-c4cc(-c5cc(=O)c6c(O)cc(O)cc6o5)ccc4OC)c3o2)cc1`, the Kd (in general, the constant that tells how readily two partners part at equilibrium) is > 4 mM (inactive).

With `O=C1CC(c2ccccc2)n2ncnc2N1` (stereo unspecified), the Kd was > 4 mM (inactive).

On to `Cc1nnc(SCC(=O)N2CCCCC2)s1`, for which the Kd is > 4 mM (inactive).

In the case of `N#Cc1cc2c(nc1SCc1ccncc1)CCC2`, the Kd is > 4 mM (inactive).

In the case of `CCSc1nc2ccccc2[nH]1`, the Kd is > 4 mM (inactive).

Take `CNC(=O)c1ccccc1-c1ccccc1`: the Kd is > 4 mM (inactive).

With `C=C[C@@](C)(O)CCC1C(=C)C[C@H](OC(C)=O)C2C(C)(C)CCCC12C` (stereo partly specified), the Kd is > 4 mM (inactive).

Consider `O=[n+]1c(CO)c(CO)n([O-])c2ccccc21`, for which the Kd is > 4 mM (inactive).

As to `O=C(c1ccncc1)N1CCN(C(=O)c2ccco2)CC1`, the Kd is > 4 mM (inactive).

Take `CC(=O)CS(=O)(=O)c1ccccc1`: the Kd was > 4 mM (inactive).

Regarding `COc1ccc(-c2cc(=O)c3c(OC(C)=O)cc(OC(C)=O)cc3o2)cc1`, the Kd is > 4 mM (inactive).

As for `COC(=O)c1ccc(N2CCOCC2)nc1`, the Kd was > 4 mM (inactive).

As for `Cc1nnsc1-c1onc(C)c1C(=O)O`, the Kd is > 4 mM (inactive).

On to `O=C1c2ccccc2C(=O)N1/N=C/c1ccc[nH]1`, for which the Kd was > 4 mM (inactive).

Consider `N#Cc1cc(-c2ccccc2)oc1N`, for which the Kd was > 4 mM (inactive).

Consider `O=C(O)c1sccc1-n1cccc1`, for which the Kd was > 4 mM (inactive).

Turning to `c1coc(CNc2nc(-c3ccncc3)cs2)c1`, the Kd was > 4 mM (inactive).

For `Fc1ccc(N2CCNCC2)cc1`, the Kd is > 4 mM (inactive).

As to `COc1ccc([C@@H]2CC(=O)c3c(O)cc(O)cc3O2)cc1O`, the Kd is > 4 mM (inactive).

Regarding `COC(=O)[C@H]1[C@H]2C[C@H]3c4[nH]c5ccccc5c4CCN3C[C@H]2CC[C@@H]1O`, the Kd is > 4 mM (inactive).

`OC1CCN(Cc2ccc[nH]2)CC1`: the Kd is > 4 mM (inactive).

`CCNS(=O)(=O)c1ccc(OC)c(C)c1`: the Kd is > 4 mM (inactive).

As to `Nc1nnc(SCc2ccc(F)cc2)s1`, the Kd is > 4 mM (inactive).

As for `O=C1NNC(=O)C2C3c4ccccc4C(c4ccccc43)C12` (stereo unspecified), the Kd was > 4 mM (inactive).

In the case of `O=C(O)c1cccnc1`, the Kd is > 4 mM (inactive).

Consider `COC(=O)[C@]1(C)CC[C@]2(C)CC[C@]3(C)C4=CC=C5C(=CC(=O)C(O)=C5C)[C@]4(C)CC[C@@]3(C)[C@@H]2C1`, for which the Kd is > 4 mM (inactive).

Take `Cc1nc(SCC#N)c2c(C)c(C)sc2n1`: the Kd was > 4 mM (inactive).

Consider `COc1ccc(S(=O)(=O)N2CCOCC2)cc1C(C)C`, for which the Kd was > 4 mM (inactive).

Turning to `CCn1cnc2scc(-c3ccccc3)c2c1=O`, the Kd was > 4 mM (inactive).

Take `Cc1n[nH]c(=S)n(/N=C/c2ccccc2)c1=O`: the Kd was > 4 mM (inactive).

In the case of `CCOC(=O)c1c(C)cc(OC)cc1O`, the Kd is > 4 mM (inactive).

Turning to `Cc1cc(C)n(-c2cccc3cccnc23)n1`, the Kd is > 4 mM (inactive).

Consider `O=c1cc(-c2ccccc2)oc2c(O)c(O)ccc12`, for which the Kd was > 4 mM (inactive).

As to `Cc1ccc(S(=O)(=O)CCc2ccccn2)cc1`, the Kd is > 4 mM (inactive).

As for `O=C1C2C3CCC(O3)C2C(=O)N1c1ccccc1` (stereo unspecified), the Kd was > 4 mM (inactive).

As for `O=C(NCO)c1ccccc1Cl`, the Kd is > 4 mM (inactive).

In the case of `CC1CCC(N2CCN(c3ncccn3)CC2)CC1` (stereo unspecified), the Kd is > 4 mM (inactive).

Regarding `Cc1ccc(N)nc1`, the Kd is > 4 mM (inactive).

`c1cncc(C2CCCCN2)c1` (stereo unspecified): the Kd was > 4 mM (inactive).

Take `O=C(CSc1cccc2cccnc12)N1CCCC1`: the Kd is > 4 mM (inactive).

In the case of `S=c1[nH]nc(-c2cccnc2)n1Cc1ccccc1`, the Kd is > 4 mM (inactive).

Take `O=C(O)CCc1nc2ccccc2[nH]c1=O`: the Kd is > 4 mM (inactive).

Take `CCN1C(=O)c2c(C)nc3ccccc3c2C1=O`: the Kd is > 4 mM (inactive).

On to `CC(C)=CC1C(C(=O)O)C1(C)C` (stereo unspecified), for which the Kd is > 4 mM (inactive).

As to `O=C(Nc1ccc(F)cc1F)c1ccco1`, the Kd was > 4 mM (inactive).

As for `Cn1c(=O)c2c(ncn2CCNC2=NCCC2)n(C)c1=O`, the Kd was > 4 mM (inactive).

As for `CSc1ccc(/C=N/n2c(C)nnc2C)cc1`, the Kd is > 4 mM (inactive).

Turning to `Cn1c(=O)n(CC(=O)Nc2cccnc2)c2ccccc21`, the Kd is > 4 mM (inactive).

In the case of `CN=C(C)c1c(O)n(C)c(=O)n(C)c1=O`, the Kd is > 4 mM (inactive).

As for `CSc1nnc(CN2CCSCC2)n1C`, the Kd is > 4 mM (inactive).

For the compound `Cn1c(=O)c2cn3ncccc3c2n(C)c1=O`, the Kd is > 4 mM (inactive).

As for `Cc1nnc(SCC(=O)N2CCc3ccccc32)s1`, the Kd is > 4 mM (inactive).

For `CN1CCN(C(=S)c2ccc(N(C)C)cc2)CC1`, the Kd is > 4 mM (inactive).

With `Cc1ccc2c(c1)CCCN2C(=O)c1ccncc1`, the Kd was > 4 mM (inactive).

As for `CP(C)(=O)CCC(=O)O`, the Kd was > 4 mM (inactive).

As for `O=C(c1ccc(F)cc1)N1CCOCC1`, the Kd is > 4 mM (inactive).

Regarding `Cc1ccc(C(=O)N2CCOCC2)cc1Cl`, the Kd was > 4 mM (inactive).

In the case of `COc1ccc2c(c1)=C(c1sc(N)nc1O)C(=O)N=2`, the Kd is > 4 mM (inactive).

Turning to `O=C(NC(=S)NN1CCOCC1)c1cccs1`, the Kd was > 4 mM (inactive).

For the compound `NCc1ccc2c(c1)OCCO2`, the Kd was > 4 mM (inactive).

`O=C(Nc1ccon1)c1ccc(Br)o1`: the Kd was > 4 mM (inactive).

Turning to `O=c1ccc2cc(O)c(O)cc2o1`, the Kd was > 4 mM (inactive).

For `CCSc1nc(N)c(NC(=O)c2ccco2)c(=O)[nH]1`, the Kd was > 4 mM (inactive).

As for `Cc1ccc(C(=O)CS(C)(=O)=O)cc1`, the Kd is > 4 mM (inactive).

As to `CN1CCCn2c1nc1c2c(=O)[nH]c(=O)n1C`, the Kd is > 4 mM (inactive).

For `OC[C@@H]1CCCN2CCCC[C@H]12`, the Kd is > 4 mM (inactive).

As to `C=C1C2CC[C@H]3[C@]4(C)C[C@H](OC5OC(CO)C(OS(=O)(=O)O)C(OS(=O)(=O)O)C5OC(=O)CC(C)C)C[C@@H](C(=O)O)[C@H]4CC[C@]3(C2)[C@H]1O` (stereo partly specified), the Kd was > 4 mM (inactive).

`O=S(=O)(c1ccc(F)c(Cl)c1)N1CCCC1`: the Kd is > 4 mM (inactive).

Consider `Cc1nc2sccn2c1C(=O)O`, for which the Kd is > 4 mM (inactive).

With `CNC(=O)C(=O)Nc1ccc(C)c(C)c1`, the Kd is > 4 mM (inactive).

For the compound `OCc1ccc(-n2cncn2)cc1`, the Kd is > 4 mM (inactive).

With `O=C(CN1CCOCC1)Nc1nccs1`, the Kd was > 4 mM (inactive).

As for `CC(=O)c1cccc(NS(=O)(=O)N(C)C)c1`, the Kd was > 4 mM (inactive).

Consider `CN(C)S(=O)(=O)N1CCc2ccccc21`, for which the Kd was > 4 mM (inactive).

`Cc1ccc(S(=O)(=O)CC(N)=O)cc1`: the Kd was > 4 mM (inactive).

With `CN(C)C(=O)CSc1cccc2cccnc12`, the Kd is > 4 mM (inactive).
